Laboratory results from patent publication US7345070B2, “Peroxisome proliferator activated receptor agonists” (Eli Lilly and Company, priority 2000, dated 2008).

How the values were obtained:
huPPARα = experiment: Cotransfection assay in CV-1 cells, huPPARα; assay type: cell-based, human; settings: GAL4 chimeric system, relative to PPARα agonist reference molecule
Outline: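 Binding: SPA displacement of tritiated PPARα or PPARγ agonist, giving IC50. Cotransfection: CV-1 cells with CMV-driven PPAR and RXRα, luciferase reporter (AOX PPRE/TK or GAL4 chimera); efficacy relative to PPARα or PPARγ reference agonists, from curve fit or at 10 μM.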

db/db mice = experiment: Evaluation of glucose levels in db/db mice; assay type: in vivo; settings: Mus musculus, 168 h, 30 mg/kg oral gavage daily for 7 days, 100% = glucose not different from lean values, read-out: Glucose Normalisation
Protocol: Five week old male diabetic (db/db) mice [C57BlKs/j-m+/+ Lepr(db), Jackson Laboratory, Bar Harbor, Me.] or lean littermates (db+) were housed 6 per cage (10″×20″×8″ with aspen chip bedding) with food (Purina 5015) and water available at all times. After an acclimation period of 2 weeks, animals were individually identified by ear notches, weighed, and bled via the tail vein for determination of initial glucose levels. Blood was collected (100 μl) from unfasted animals by wrapping each mouse in a towel, cutting the tip of the tail with a scalpel, and milking blood from the tail into a heparinized capillary tube (Fisher) balanced on the edge of the bench. Sample was discharged into a heparinized microtainer with gel separator (VWR) and retained on ice. Plasma was obtained after centrifugation at 4° C. and glucose measured immediately. Remaining plasma was frozen until the completion of the experiment, when glucose and triglycerides were assayed in all samples. Animals were grouped based on initial glucose levels and body weights. Beginning the following morning, mice were dosed daily by oral gavage for 7 days using a 20 gauge, 1½″ curved disposable feeding needle. Treatments were test compounds (30 mg/kg), a positive control agent (30 mg/kg) or vehicle [1% carboxymethylcellulose (w/v)/0.25% Tween80 (w/v); 0.3 ml/mouse]. On day 7, mice were weighed and bled (tail vein) 3 hours after dosing. Twenty-four hours after the 7th dose (i.e., day 8), animals were bled again (tail vein). Samples obtained from conscious animals on days 0, 7 and 8 were assayed for glucose. After the 24 hour bleed, animals were weighed and dosed for the final time. Three hours after dosing on day 8, animals were anesthetized by inhalation of isoflurane and blood obtained via cardiac puncture (0.5-0.7 ml). Whole blood was transferred to serum separator tubes, chilled on ice and permitted to clot. Serum was obtained after centrifugation at 4° C. and frozen until analysis for compound levels. After sacrifice by cervical dislocation, the liver, heart and epididymal fat pads were excised and weighed.
The animals dosed with vehicle had average triglycerides values of 170-230 mg/dl, which were reduced by the positive PPARγ control (70-120 mg/dl with a mean reduction of 50%). Male db/db mice were hyperglycemic (average glucose of 680-730 mg/dl on the 7th day of treatment), while lean animals had average glucose levels between 190-230 mg/dl.
Glucose was measured […] using commercially purchased reagents (Sigma #315-500). According to the manufacturers, the procedures were modified from published work (McGowan, M. W., Artiss, J. D., Strandbergh, D. R. & Zak, B. Clin Chem, 20:470-5 (1974) and Keston, A. Specific colorimetric enzymatic analytical reagents for glucose. Abstract of papers 129th Meeting ACS, 31C (1956).); and depend on the release of a mole of hydrogen peroxide for each mole of analyte, coupled with a color reaction first described by Trinder (Trinder, P. Determination of glucose in blood using glucose oxidase with an alternative oxygen acceptor. Ann Clin Biochem, 6:24 (1969)). The absorbance of the dye produced is linearly related to the analyte in the sample. The assays were further modified in our laboratory for use in a 96 well format. Standards (Sigma #339-11, Sigma #16-11, and Sigma #CC0534 for glucose, triglycerides and total cholesterol, respectively), quality control plasma (Sigma # A2034), and samples (2 or 5 μl/well) were measured in duplicate using 200 μl of reagent. An additional aliquot of sample, pipetted to a third well and diluted in 200 μl water, provided a blank for each specimen. Plates were incubated at room temperature (18, 15, and 10 minutes for glucose, triglycerides and total cholesterol, respectively) on a plate shaker (DPC Micormix 5) and absorbance read at 500 nm (glucose and total cholesterol) or 540 nm (triglycerides) on a plate reader (Wallac Victor 1420). […]

SMILES	huPPARα CTF Efficacy (huPPARα) [%]	inhibition in vivo at 30 mg/kg (db/db mice) [%]
Cc1cccc(OC(C)(Cc2ccc(OCCc3nc(-c4cccs4)oc3C)cc2)C(=O)O)c1 (stereo not shown) [Example 61, 2-Methyl-3-{4-[2-(5-methyl-2-thiophen-2-yl-oxazol-4-yl)-ethoxy]-phenyl}-2-m-tolyloxy-propionic acid]	52	79
Cc1oc(-c2ccccc2)nc1CCOc1ccc(CC(C)(Oc2ccc3c(c2)OCO3)C(=O)O)cc1 (stereo not shown) [Example 78, 2-(Benzo[1,3]dioxol-5-yloxy)-2-methyl-3-{4-[2-(5-methyl-2-phenyl-oxazol-4-yl)-ethoxy]-phenyl}-propionic acid]	52	86
Cc1oc(C2(C)CCCCC2)nc1CCOc1ccc(CC(C)(Oc2ccccc2)C(=O)O)cc1 (stereo not shown) [Example 9, 2-Methyl-3-(4-{2-[5-methyl-2-(1-methylcyclohexyl)oxazol-4-yl]ethoxy}phenyl)-2-phenoxypropionic acid]	61	95
Cc1oc(C2CCCCC2)nc1CCOc1ccc(CC(C)(Oc2ccc(F)c(F)c2)C(=O)O)cc1 (stereo not shown) [Example 58, 3-{4-[2-(2-Cyclohexyl-5-methyl-oxazol-4-yl)-ethoxy]-phenyl}-2-(3,4-difluoro-phenoxy)-2-methyl-propionic acid]	149	81
Cc1oc(C2CCCCC2)nc1CCOc1ccc(CC(C)(Oc2ccc(F)cc2)C(=O)O)cc1 (stereo not shown) [Example 65, 3-{4-[2-(2-Cyclohexyl-5-methyl-oxazol-4-yl)-ethoxy]-phenyl}-2-(4-fluoro-phenoxy)-2-methyl-propionic acid]	46	99
Cc1oc(-c2cccs2)nc1CCOc1ccc(CC(C)(Oc2ccc(F)cc2)C(=O)O)cc1 (stereo not shown) [Example 64, 2-(4-Fluoro-phenoxy)-2-methyl-3-{4-[2-(5-methyl-2-thiophen-2-yl-oxazol-4-yl)-ethoxy]-phenyl}-propionic acid]	50	97
Cc1cccc(OC(C)(Cc2ccc(OCCc3nc(C4CCCCC4)oc3C)cc2)C(=O)O)c1 (stereo not shown) [Example 62, 3-{4-[2-(2-Cyclohexyl-5-methyl-oxazol-4-yl)-ethoxy]-phenyl}-2-methyl-2-m-tolyloxy-propionic acid]	101	79
Cc1oc(C2CCCCC2)nc1CCOc1ccc(CC(C)(Oc2ccc3c(c2)OCO3)C(=O)O)cc1 (stereo not shown) [Example 80, 2-(Benzo[1,3]dioxol-5-yloxy)-3-{4-[2-(2-cyclohexyl-5-methyl-oxazol-4-yl)-ethoxy]-phenyl}-2-methyl-propionic acid]	84	83
Cc1ccc(OC(C)(Cc2ccc(OCCc3nc(-c4cccs4)oc3C)cc2)C(=O)O)cc1 (stereo not shown) [Example 40, 2-Methyl-3-{4-[2-(5-methyl-2-thiophen-2-yl-oxazol-4-yl)-ethoxy]-phenyl}-2-p-tolyloxy-propionic acid]	77	103
Cc1oc(-c2ccccc2)nc1CCCc1ccc(CC(C)(Oc2ccccc2)C(=O)O)s1 (stereo not shown) [Example 91, 2-Methyl-3-{5-[3-(5-methyl-2-phenyl-oxazol-4-yl)-propyl]-thiophen-2-yl}-2-phenoxy-propionic acid]	47	71
Cc1oc(-c2cccs2)nc1CCOc1ccc(CC(C)(Oc2ccccc2F)C(=O)O)cc1 (stereo not shown) [Example 27, 2-(2-Fluoro-phenoxy)-2-methyl-3-{4-[2-(5-methyl-2-thiophen-2-yl-oxazol-4-yl)-ethoxy]-phenyl}-propionic acid]	46	86
